In patent US8101768B2, “Cyclic amine compound and pest control agent” (Nippon Soda Co., Ltd., priority 2004, dated 2012):

Legend:
[1] = tested on: acaricide resistant citrus red mites; experiment: Effect on Citrus Red Mite (spray on mandarin orange leaves); type: in vivo; details: 31 ppm, emulsifiable concentrate of Formulation Example 2 sprayed, 10 female adults, 25° C., 65% humidity
Procedure: Effect on Citrus Red Mite
10 female adults of acaricide resistant citrus red mites were inoculated onto leaves of a mandarin orange placed on dishes, onto which each of liquid agents, diluted with water so as to adjust the respective concentration of the chemical compounds to 31 ppm according to the formulation of the emulsifiable concentrate shown in the aforementioned Formulation Example 2, was sprayed by using a rotating sparge tower. After they were left in a thermostatic chamber at 25° C. in 65% humidity for 3 days, and were then removed from the dishes, eggs laid for 3 days were investigated whether they could grow to adults or not on the eleventh day. As the results, the following chemical compounds killed 100% of the adults. 1-13, 1-15, 1-22, 1-27, 1-45, 1-54, 1-59, 1-63, 1-66, 1-69, 1-71, 1-72, 1-75, 1-80, 1-88, 1-89, 1-92, 1-93, 1-94, 1-97, 1-98, 1-100, 1-102, 1-105, 1-108, 1-133, 1-136, 1-142, 1-153, 1-181, 1-183, 1-186, 1-187, 1-188, 1-189, 1-190, 1-191,

[2] = tested on: organophosphorous agent resistant two-spotted spider mites; experiment: Effect on Two-spotted Spider Mite (spray on kidney bean leaves); type: in vivo; details: 125 ppm, water dispersible powder of Formulation Example 1 sprayed, 17 female adults, 25° C., 65% humidity, 3 days
Procedure, shortened: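 Mortality of adult females counted after 3 days at 25 °C and 65% humidity, following a 125 ppm spray of wettable-powder dilution onto infested 7–10-day-old bean seedlings (17 mites per leaf). Two replicates.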

SMILES: FC(F)(F)c1ccc(N2C[C@H]3CC[C@@H](C2)[C@@H]3Oc2ccc(C(F)(F)F)cc2OCC2CC2)nc1 [5-116]
- killed ... of the adults (eggs laid for 3 days investigated whether they could grow to adults on the eleventh day) [1]: 100%
- rate of killed adults [2]: 100%

SMILES: FC(F)c1ccc(O[C@@H]2[C@@H]3CC[C@H]2CN(c2ccc(C(F)(F)F)cn2)C3)c(OCC2CC2)c1 [5-118]
- killed ... of the adults (eggs laid for 3 days investigated whether they could grow to adults on the eleventh day) [1]: 100%
- rate of killed adults [2]: 100%

SMILES: CCC(OC)OCc1cc(C(F)(F)F)ccc1OC1C2CCC1CN(c1ccc(C(F)(F)F)cn1)C2 (stereo not shown) [5-222]
- killed ... of the adults (eggs laid for 3 days investigated whether they could grow to adults on the eleventh day) [1]: 100%
- rate of killed adults [2]: 100%

SMILES: CC(C)(C)OC(=O)c1cc(C(F)(F)F)ccc1O[C@@H]1[C@@H]2CC[C@H]1CN(c1ccc(C(F)(F)F)cn1)C2 [5-257]
- killed ... of the adults (eggs laid for 3 days investigated whether they could grow to adults on the eleventh day) [1]: 100%
- rate of killed adults [2]: 100%

SMILES: CC(C)OCc1cc(C(F)(F)F)ccc1OC1C2CCC1CN(c1ccc(C(F)(F)F)cn1)C2 (stereo not shown) [5-225]
- killed ... of the adults (eggs laid for 3 days investigated whether they could grow to adults on the eleventh day) [1]: 100%
- rate of killed adults [2]: 100%

SMILES: CCOc1cc(C(F)(F)F)ccc1O[C@@H]1[C@@H]2CC[C@H]1CN(c1ccc(C(F)(F)F)cn1)C2 [5-90]
- killed ... of the adults (eggs laid for 3 days investigated whether they could grow to adults on the eleventh day) [1]: 100%
- rate of killed adults [2]: 100%

SMILES: FC(F)(Br)Oc1ccc(OC2CCN(c3ccc(C(F)(F)F)cn3)CC2)cc1 [1-136]
- killed ... of the adults (eggs laid for 3 days investigated whether they could grow to adults on the eleventh day) [1]: 100%
- rate of killed adults [2]: 100%

SMILES: N#Cc1ccc(O[C@@H]2[C@@H]3CC[C@H]2CN(c2ccc(C(F)(F)F)cn2)C3)c(OCC2CC2)c1 [5-121]
- killed ... of the adults (eggs laid for 3 days investigated whether they could grow to adults on the eleventh day) [1]: 100%
- rate of killed adults [2]: 100%

SMILES: CCS(=O)(=O)Oc1cc(C(F)(F)F)ccc1OC1C2CCC1CN(c1ccc(C(F)(F)F)cn1)C2 (stereo not shown) [5-162]
- killed ... of the adults (eggs laid for 3 days investigated whether they could grow to adults on the eleventh day) [1]: 100%
- rate of killed adults [2]: 100%

SMILES: CCc1cc(Cl)ccc1OC1CCN(c2ccc(C(F)(F)F)cn2)CC1 [1-54]
- killed ... of the adults (eggs laid for 3 days investigated whether they could grow to adults on the eleventh day) [1]: 100%
- rate of killed adults [2]: 100%

SMILES: CCOc1cc(C(F)(F)F)ccc1OC1CCN(c2ccc(C(F)(F)F)cn2)CC1 [1-89]
- killed ... of the adults (eggs laid for 3 days investigated whether they could grow to adults on the eleventh day) [1]: 100%
- rate of killed adults [2]: 100%

SMILES: COCCOc1cc(C(F)(F)F)ccc1O[C@@H]1[C@@H]2CC[C@H]1CN(c1ccc(C(F)(F)F)cn1)C2 [5-124]
- killed ... of the adults (eggs laid for 3 days investigated whether they could grow to adults on the eleventh day) [1]: 100%
- rate of killed adults [2]: 100%

SMILES: FC(F)(F)c1ccc(N2CC3CCC(C2)C3Oc2ccc(C(F)(F)F)cc2C2OCCO2)nc1 (stereo not shown) [5-215]
- killed ... of the adults (eggs laid for 3 days investigated whether they could grow to adults on the eleventh day) [1]: 100%
- rate of killed adults [2]: 100%

SMILES: CCOCc1cc(C(F)(F)F)ccc1OC1CCN(c2ccc(C(F)(F)F)cn2)CC1 [1-66]
- killed ... of the adults (eggs laid for 3 days investigated whether they could grow to adults on the eleventh day) [1]: 100%
- rate of killed adults [2]: 100%

SMILES: FC(F)(F)c1ccc(N2C[C@H]3CCC[C@@H](C2)[C@@H]3Oc2ccc(C(F)(F)F)cc2OCC2CC2)nc1 [7-103]
- killed ... of the adults (eggs laid for 3 days investigated whether they could grow to adults on the eleventh day) [1]: 100%
- rate of killed adults [2]: 100%

SMILES: CCCOCc1cc(C(F)(F)F)ccc1OC1C2CCC1CN(c1ccc(C(F)(F)F)cn1)C2 (stereo not shown) [5-217]
- killed ... of the adults (eggs laid for 3 days investigated whether they could grow to adults on the eleventh day) [1]: 100%
- rate of killed adults [2]: 100%

SMILES: Cc1coc(-c2cc(C(F)(F)F)ccc2O[C@@H]2[C@@H]3CC[C@H]2CN(c2ccc(C(F)(F)F)cn2)C3)n1 [5-261]
- killed ... of the adults (eggs laid for 3 days investigated whether they could grow to adults on the eleventh day) [1]: 100%
- rate of killed adults [2]: 100%

SMILES: COCOc1cc(C(F)(F)F)ccc1OC1C2CCCC1CN(c1ccc(C(F)(F)F)cn1)C2 (stereo not drawn) [7-100, 9β-[2-methoxymethoxy-4-(trifluoromethyl)phenoxy]-3-[5-(trifluoromethyl)-2-pyridyl]-3-azabicyclo[3.3.1]nonane]
- killed ... of the adults (eggs laid for 3 days investigated whether they could grow to adults on the eleventh day) [1]: 100%
- rate of killed adults [2]: 100%

SMILES: C=CCOc1cc(C(F)(F)F)ccc1OC1C2CCC1CN(c1ccc(C(F)(F)F)cn1)C2 (stereo not shown) [5-149]
- killed ... of the adults (eggs laid for 3 days investigated whether they could grow to adults on the eleventh day) [1]: 100%
- rate of killed adults [2]: 100%

SMILES: CCCOc1cc(C(F)(F)F)ccc1OC1CCN(c2ccc(C(F)(F)F)cn2)CC1CC (stereo not shown) [1-186]
- killed ... of the adults (eggs laid for 3 days investigated whether they could grow to adults on the eleventh day) [1]: 100%
- rate of killed adults [2]: 100%

SMILES: CC(C)COc1cc(C(F)(F)F)ccc1O[C@@H]1[C@@H]2CC[C@H]1CN(c1ccc(C(F)(F)F)cn1)C2 [5-105]
- killed ... of the adults (eggs laid for 3 days investigated whether they could grow to adults on the eleventh day) [1]: 100%
- rate of killed adults [2]: 100%

SMILES: CCCC(O)c1cc(C(F)(F)F)ccc1OC1C2CCC1CN(c1ccc(C(F)(F)F)cn1)C2 (stereo not shown) [5-227]
- killed ... of the adults (eggs laid for 3 days investigated whether they could grow to adults on the eleventh day) [1]: 100%
- rate of killed adults [2]: 100%

SMILES: CC1CNC(c2cc(C(F)(F)F)ccc2O[C@@H]2[C@@H]3CC[C@H]2CN(c2ccc(C(F)(F)F)cn2)C3)O1 (stereo partly shown) [5-260]
- killed ... of the adults (eggs laid for 3 days investigated whether they could grow to adults on the eleventh day) [1]: 100%
- rate of killed adults [2]: 100%

SMILES: CCOC(C)OCc1cc(C(F)(F)F)ccc1OC1C2CCC1CN(c1ccc(C(F)(F)F)cn1)C2 (stereo not shown) [5-229]
- killed ... of the adults (eggs laid for 3 days investigated whether they could grow to adults on the eleventh day) [1]: 100%
- rate of killed adults [2]: 100%

SMILES: CC(C)CC(O)c1cc(C(F)(F)F)ccc1OC1C2CCC1CN(c1ccc(C(F)(F)F)cn1)C2 (stereo not shown) [5-239]
- killed ... of the adults (eggs laid for 3 days investigated whether they could grow to adults on the eleventh day) [1]: 100%
- rate of killed adults [2]: 100%

SMILES: CCCOc1cc(C(F)(F)F)ccc1OC1CCN(c2ccc(C(F)(F)F)cn2)CC1CCC (stereo not shown) [1-191]
- killed ... of the adults (eggs laid for 3 days investigated whether they could grow to adults on the eleventh day) [1]: 100%
- rate of killed adults [2]: 100%

SMILES: Cc1noc(-c2cc(C(F)(F)F)ccc2O[C@@H]2[C@@H]3CC[C@H]2CN(c2ccc(C(F)(F)F)cn2)C3)n1 [5-256]
- killed ... of the adults (eggs laid for 3 days investigated whether they could grow to adults on the eleventh day) [1]: 100%
- rate of killed adults [2]: 100%

SMILES: FC(F)(F)c1ccc(N2CC3CCC(C2)C3Oc2ccc(C(F)(F)F)cc2OCC2OCCO2)nc1 (stereo not shown) [5-203]
- killed ... of the adults (eggs laid for 3 days investigated whether they could grow to adults on the eleventh day) [1]: 100%
- rate of killed adults [2]: 100%

SMILES: CC(C)Oc1cc(C(F)(F)F)ccc1OC1CCN(c2ccc(C(F)(F)F)cn2)CC1 [1-100]
- killed ... of the adults (eggs laid for 3 days investigated whether they could grow to adults on the eleventh day) [1]: 100%
- rate of killed adults [2]: 100%

SMILES: CCCOc1cc(C(F)(F)F)ccc1OC1CCN(c2ccc(C(F)(F)F)cn2)CC1C (stereo not shown) [1-98]
- killed ... of the adults (eggs laid for 3 days investigated whether they could grow to adults on the eleventh day) [1]: 100%
- rate of killed adults [2]: 100%

SMILES: CC1COC(c2cc(C(F)(F)F)ccc2OC2C3CCC2CN(c2ccc(C(F)(F)F)cn2)C3)O1 (stereo not shown) [5-218]
- killed ... of the adults (eggs laid for 3 days investigated whether they could grow to adults on the eleventh day) [1]: 100%
- rate of killed adults [2]: 100%

SMILES: CCOCc1cc(C(F)(F)F)ccc1OC1C2CCC1CN(c1ccc(C(F)(F)F)cn1)C2 (stereo not shown) [5-220]
- killed ... of the adults (eggs laid for 3 days investigated whether they could grow to adults on the eleventh day) [1]: 100%
- rate of killed adults [2]: 100%

SMILES: C#CCOc1cc(C(F)(F)F)ccc1OC1C2CCC1CN(c1ccc(C(F)(F)F)cn1)C2 (stereo not shown) [5-177]
- killed ... of the adults (eggs laid for 3 days investigated whether they could grow to adults on the eleventh day) [1]: 100%
- rate of killed adults [2]: 100%

SMILES: CC1(C)COC(c2cc(C(F)(F)F)ccc2O[C@@H]2[C@@H]3CC[C@H]2CN(c2ccc(C(F)(F)F)cn2)C3)N1 (stereo partly shown) [5-262]
- killed ... of the adults (eggs laid for 3 days investigated whether they could grow to adults on the eleventh day) [1]: 100%
- rate of killed adults [2]: 100%

SMILES: CCCOc1cc(C(F)(F)F)ccc1OC1C2CCC1CN(c1ccc(C(F)(F)F)cn1)C2 (stereo not drawn) [5-97, 8β-[2-propoxy-4-(trifluoromethyl)phenoxy]-3-[5-(trifluoromethyl)-2-pyridyl]-3-azabicyclo[3.2.1]octane]
- killed ... of the adults (eggs laid for 3 days investigated whether they could grow to adults on the eleventh day) [1]: 100%
- rate of killed adults [2]: 100%

SMILES: COCOCc1cc(C(F)(F)F)ccc1O[C@@H]1[C@@H]2CC[C@H]1CN(c1ccc(C(F)(F)F)cn1)C2 [5-69]
- killed ... of the adults (eggs laid for 3 days investigated whether they could grow to adults on the eleventh day) [1]: 100%
- rate of killed adults [2]: 100%

SMILES: N#Cc1ccc(N2C[C@H]3CC[C@@H](C2)[C@@H]3Oc2ccc(C(F)(F)F)cc2OCC2CC2)nc1 [5-120]
- killed ... of the adults (eggs laid for 3 days investigated whether they could grow to adults on the eleventh day) [1]: 100%
- rate of killed adults [2]: 100%

SMILES: COCOc1cc(C(F)(F)F)ccc1O[C@@H]1[C@@H]2CC[C@H]1CN(c1ccc(C#N)cn1)C2 [5-111]
- killed ... of the adults (eggs laid for 3 days investigated whether they could grow to adults on the eleventh day) [1]: 100%
- rate of killed adults [2]: 100%

SMILES: COC(C)OCc1cc(C(F)(F)F)ccc1O[C@@H]1[C@@H]2CC[C@H]1CN(c1ccc(C(F)(F)F)cn1)C2 (stereo partly shown) [5-72]
- killed ... of the adults (eggs laid for 3 days investigated whether they could grow to adults on the eleventh day) [1]: 100%
- rate of killed adults [2]: 100%

SMILES: COCOc1cc(C(F)(F)F)ccc1O[C@@H]1[C@@H]2CC[C@H]1CN(c1ccc(C(F)(F)F)cn1)C2 [5-110]
- killed ... of the adults (eggs laid for 3 days investigated whether they could grow to adults on the eleventh day) [1]: 100%
- rate of killed adults [2]: 100%

SMILES: CC1COC(c2cc(C(F)(F)F)ccc2O[C@@H]2[C@@H]3CC[C@H]2CN(c2ccc(C(F)(F)F)cn2)C3)N1 (stereo partly shown) [5-259]
- killed ... of the adults (eggs laid for 3 days investigated whether they could grow to adults on the eleventh day) [1]: 100%
- rate of killed adults [2]: 100%
